Results taken from paper PMC5805526, “ZB716, a steroidal selective estrogen receptor degrader (SERD), is orally efficacious in blocking tumor growth in mouse xenograft models” (Oncotarget, 2018).
Where two headings read alike, the source gives them in different places.

Assays:
[1] = system: T47D/Y537S breast cancer cells; experiment: T47D/Y537S ESR1 mutant cell growth inhibition; format: cell-based; conditions: Homo sapiens, 120 h, 5 days treatment
From the text: Wild-type ESR1, the Y537S ESR1 mutant were fused to a FLAG tag at their C-termini and cloned into the lentiviral vector pFLRu-FH [30]. Y537S mutation was first introduced into ESR1 using the QuikChange II XL Site-Directed Mutagenesis Kit (Agilent) with an ESR1-encoding plasmid (Accession number NM_000125.1, GeneCopoeia Inc.) as the template. […] To make lentiviral particles, pFLRu-FH vector DNAs (encoding ESR1(wt) and ESR1(Y537S)) were cotransfected with the packaging plasmids into HEK293T cells using Fugene 6 (Roche). At 48 hours post transfection, culture media containing different viruses were added to T47D cells in the presence of polybrene followed by 3-day puromycin selection for stable expression.
Viable cell numbers were counted with a Z Series Coulter Counter instrument (Beckman-Coulter) following manufacturer's instructions. […] IC50 values were obtained from dose-response curves for all treatments.

[2] = parameters: method as in PMID 27529700; conditions: after ZB716 dosing; cited from earlier work
[3] = Drug concentrations in final plasma and tumor tissue of MCF-7 xenograft mice; format: in vivo; conditions: female, Nu/Nu, mouse
Procedure: The plasma samples of 100 μL each were processed for analysis by a TSQ UPLC-MS/MS system. Aliquots of 10 μL of 0.5 ng/μl E-Tamoxifen-2C^13, N^15, 200 μL methanol, and 400 μl chloroform were added to the plasma in a 1.5 mL centrifuge tube in sequence. The sample was vortexed and stored at −20°C for 4 hours, followed by sonication in a Branson B3510MT Ultrasonic Cleaners for 30 min and centrifuged at 12000 RPM on a Heraeus Fresco 21 Refrigerated Micro Centrifuge from Thermo Fisher Scientific for 10 min. The supernatant was dried with a nitrogen gas flow and suspended in 100 μL methanol. Aliquots of 10 μL of the above processed samples were injected into a TSQ Vantage mass spectrometer connected with a heated electrospray ionization probe and a Dionex Ultimat 3000 UHPLC with a Hypersil gold column (50×2.1 mm). The probe setting and front mass spectrometer setting were controlled as follows: spray voltage 3200 voltage, auxiliary gas 10psi, vaporizer temperature 365°C, capillary temperature 300°C, sheath gas 30psi, S-lens RF amplitude 51 voltage. The flow gradient was started with initial 30% mobile phase A of water with 0.05% formic acid to 1 min, to 100% mobile phase B of acetonitrile with 0.05% formic acid at 8 min, and return to 30% mobile phase A at 13 min.

ERα LBD = target: T1, ERα LBD (Homo sapiens, UniProt P03372); experiment: MARCoNI ERα-coregulator interaction peptide microarray; format: biochemical; conditions: 10 μM compound, 7 nM GST-tagged ERα LBD, vs apo
T1 construct: using 7 nM GST-tagged ERα LBD (Invitrogen); purchased Invitrogen
T1 sequence (P03372 311-547 limits assumed): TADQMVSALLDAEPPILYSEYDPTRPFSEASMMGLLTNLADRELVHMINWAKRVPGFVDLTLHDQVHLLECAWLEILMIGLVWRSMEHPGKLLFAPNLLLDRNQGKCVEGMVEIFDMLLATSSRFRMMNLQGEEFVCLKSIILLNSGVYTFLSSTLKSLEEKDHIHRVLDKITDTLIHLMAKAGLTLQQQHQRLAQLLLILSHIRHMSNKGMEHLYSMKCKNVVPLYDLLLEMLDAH
Procedure: The modulation of ERα-coregulator interaction by compound was analyzed using MARCoNI (Micro Array Assay for Real-time Coregulator Nuclear receptor Interaction) as described previously using 7 nM GST-tagged ERα LBD (Invitrogen).
Each condition is measured using 3 technical replicates (arrays). After incubation, unbound receptor is removed by washing, and a tiff image of each array is acquired using a CCD camera and receptor binding to each peptide on the array is quantified using dedicated software. For each condition, the three technical replicates are used to calculate mean and S.E.M. ERα binding as well as compound-induced log-fold modulation vs. control for each individual motif. Significance of the modulation is assessed using Student's t-Test.

[4] = system: MCF-7 breast cancer cells; experiment: MCF-7 cell growth inhibition; format: cell-based; conditions: Homo sapiens, MCF7, 120 h; 5 days treatment, cell count vs DMSO
Procedure: At the end of treatment, surviving cells were counted and normalized to control cells that were treated with vehicle (DMSO) only. (B) IC50 values were obtained by deriving logarithmic curves from the %cell survival vs. treatment dose plot.

ERα = system: ERα; parameters: method as in PMID 27529700; conditions: read-out: binding affinity to ERα, EC50; cited from earlier work

## C[C@]12CC[C@@H]3c4ccc(O)cc4C[C@@H](CCCCCCCCC[S+]([O-])CCCC(F)(F)C(F)(F)F)[C@H]3[C@@H]1CC[C@@H]2O (some centres unmarked) [fulvestrant, reference compound]
[1]
  IC50: 32 nM
[2]
  share of total active ingredients in mice plasma (active metabolite of ZB716): 10-20%
[3]; plasma, subcutaneous, 200 mg/kg/wk, read-out: Average concentration in final plasma
  concentration at 3 weeks: 27.9 ng/mL
[3]; plasma, treatment ZB716 10 mg/kg daily PO, end of study, read-out: Average concentration in final plasma
  concentration at 3 weeks: 18.4 ng/mL
[3]; plasma, treatment ZB716 30 mg/kg daily PO, end of study, read-out: Average concentration in final plasma
  concentration at 3 weeks: 145 ng/mL
[3]; tumor tissue, subcutaneous, 200 mg/kg/wk, read-out: Average concentration in tumor tissue
  concentration at 3 weeks: 160 ng/mL
[3]; tumor tissue, treatment ZB716 10 mg/kg daily PO, end of study, read-out: Average concentration in tumor tissue
  concentration at 3 weeks: 67.9 ng/mL
[3]; tumor tissue, treatment ZB716 30 mg/kg daily PO, end of study, read-out: Average concentration in tumor tissue
  concentration at 3 weeks: 118 ng/mL
ERα LBD
  modulation of ERα interaction with coactivator motifs (NCOA family): strongly reduced
[4]
  IC50: 1.5 nM
ERα
  EC50: […]
